Laboratory results from patent US20210386779A1, “COMPOSITIONS AND METHODS FOR DIETARY ENHANCEMENT OF IMMUNE SYSTEM FUNCTION” (priority 2020, published 2021).

Tests used:
[1] = system: COVID-19 and other flu-like illnesses (SARS-CoV-2); experiment: 20-week clinical study: test group taking the core formulations monitored for symptoms of flu-like illness, with focus on COVID-19; assay type: in vivo, human; conditions: for prophylactic efficacy against COVID-19 and other flu-like illnesses (conclusion in words): 20-week study; for symptomatic control group subjects (of 12) who had maintained supplementation with this component alone, without other core formulation components: 20 weeks, vitamin C 500-1000 mg daily, vitamin D3 1000-2000 IU daily
Text: From late February/early March 2020, we recommended to patients seen in-office (and to numerous telemedicine patients) and to our staff members to follow a regimen of at least the core formulations. Of in-office patients and staff, 54 subjects started with the study's voluntary OTC regimen and, thereby, constituted the study test group (reduced to 53 subjects after the second study week by a voluntary withdrawal); while 60 declined the regimen—for reasons, when given, involving implementation's complexity and/or effort; and/or indicating barriers to implementation stemming from educational and/or socio-economic background—and constituted the study control group.
Over the study period, we monitored subjects for symptoms of flu-like illness, with an active focus on COVID-19. At the outset of the pandemic, our practice's access to COVID-19 testing was quite limited. At that point, we identified subjects as confirmed COVID-19 cases or, at least, as likely COVID-19 cases upon their earliest presentation of clinical symptoms of COVID-19; or upon their being test-confirmed as COVID cases as documented in locales and practices where testing was available. Asymptomatic/pre-symptomatic subjects—with special note taken of documented, self-reported or likely exposure to diagnosed or suspected COVID-19 cases—as well as subjects presenting symptoms of unspecified flu-like illnesses, were followed for subsequent development of COVID-19 symptoms. As testing became more available, the state/regional protocols were such that we would receive notification of individual ones among our subjects having tested positive, the testing generally conducted by a subject's primary care provider, and the notifications then sent by Ohio health agencies to all the infected patient's physicians.
One dose daily of the full core formulation regimen, as per Table 2.
Over the study period of 20+ weeks, we monitored 113 subjects (104 in-office patients and 9 staff members) for clinical symptoms of flu-like illnesses, with subsequent differential diagnosis (and, when available, with test-confirmation) of each symptomatic subject to distinguish COVID-19 from non-COVID-19 flu-like illness. We also maintained data of reported and/or observed subject exposures to clinical and/or test-confirmed cases of COVID-19.
The OTC regimen undertaken by test group subjects included the core formulations of zinc, zinc ionophores, vitamins and l-lysine, as well as at least some of the methods. […]

[2] = Supplement-specific monitoring for side effects and toxicity over the study period; set-up: species or system human; conditions: in vivo, po
Text: Monitoring tor such side effects is expected to continue over and beyond the period of quina bark extract administration.
It appears to be appropriate to continue monitoring for oncological side effects over and beyond the period of quercetin administration.

[3] = biological target: SARS-CoV-2 viral S-spike binding to cells (UniProt P0DTC2+Q9BYF1); conditions: supercomputer docking; cited from earlier work

| SMILES | prophylactic efficacy against COVID-19 and other flu-like illnesses (conclusion in words) [1] | symptomatic control group subjects (of 12) who had maintained supplementation with this component alone, without other core formulation components [1] | complications, side effects or toxicity observed over the study period [2] | rank for inhibition of SARS-CoV-2 viral S-spike binding to cells among FDA-approved compounds [3] |
| --- | --- | --- | --- | --- |
| O=C1O[C@H]([C@@H](O)CO)C(O)=C1O [vitamin C] | relative lack of anti-flu/anti-COVID-19 prophylactic efficacy | at least four |  |  |
| C=C1CC[C@H](O)C/C1=C/C=C1\CCC[C@]2(C)[C@@H]([C@H](C)CCCC(C)C)CC[C@@H]12 [vitamin D3] | relative lack of anti-flu/anti-COVID-19 prophylactic efficacy | at least three |  |  |
| O=c1c(O)c(-c2ccc(O)c(O)c2)oc2cc(O)cc(O)c12 [quercetin] |  |  | received no reports nor found any clinical signs of quercetin toxicity | fifth out of twenty top performers |
